According to US20240301494A1, “IDENTIFICATION AND TREATMENT OF PATIENTS WITH EPILEPSY” (GW Research Limited, priority 2020, published 2024):

Columns and labels:
Assay type in all cases: in vivo, human
[1] = tested on: patients with treatment-resistant epilepsy (TRE); assay: CBD response (percent change in seizure frequency) in open-label Expanded Access Program; conditions: for Maintenance seizure frequency, Mean ± SD: per 28 days; for Percent change seizure frequency, Mean ± SD: vs baseline
Excerpt: (§1) All patients (or caregivers) were instructed to keep seizure diaries, which were verified during in-person visits. At each clinic visit, data on concomitant AEDs, CBD maintenance dose (mg/kg/day), seizure frequencies, and adverse events were collected.

[2] = tested on: patients with treatment-resistant epilepsy (TRE); assay: CBD tolerability: adverse events (MedDRA) in open-label Expanded Access Program
Protocol: as §1
Adverse effects were classified according to the Medical Dictionary for Regulatory Activities (MedDRA, V17.1), and those that differed by response status (diarrhoea, sedation, and abnormal liver function tests (LFTs)) were evaluated in the genetic analyses.

[3] = tested on: patients with treatment-resistant epilepsy (TRE); assay: Single-marker association of genetic variants (DMET plus array) with CBD response, logistic regression
Protocol: (§2) Baseline data collection included demographics, seizure frequencies/severity, concomitant AEDs, and laboratory data.
(§3) CLIA-certified genotyping on the Affymetrix Drug Metabolizing Enzymes and Transporters (DMET) plus array was performed through the Coriell Institute for Medical Research (Camden, NJ) in two batches, with nine samples re-genotyped due to low call rates. The DMET plus array interrogates 1,936 markers (1,931 variants and 5 copy number regions) across ˜230 drug-related genes. Affymetrix DMET Console software® (version 1.3) was used to generate genotype profiles. Of the 1,931 variants, 1,328 were removed due to location on the X-chromosome or a minor allele frequency <0.05.
Hardy-Weinberg equilibrium was evaluated, and variants p<0.0001 were further evaluated by race. Variants in linkage disequilibrium (LD) were removed (n=212; r2=0.5), leaving 396 variants in the analyses.
Relationships between variants and CBD response/tolerability were tested under dominant (AA vs Ab+bb) and recessive (AA+Ab vs bb) models using logistic regression in PLINK. Treatment group (adult vs paediatric), race, and sex were included as covariates in all analyses.
(§4) A permutation approach was used to account for multiple testing (number of permutations: 1,000), since other methods (e.g. Bonferroni correction) assume independence between markers and likely be overly conservative.

[4] = tested on: patients with treatment-resistant epilepsy (TRE); assay: Single-marker association of genetic variants (DMET plus array) with CBD-related adverse effects, logistic regression
Protocol: as §2
as §3, with “profiles.” for “profiles. Of the 1,931 variants, 1,328 were removed due to location on the X-chromosome or a minor allele frequency <0.05.”
Hardy-Weinberg equilibrium was evaluated, and variants p<0.0001 were further evaluated by race.
Treatment group (adult vs paediatric), race, and sex were included as covariates in all analyses.
as §4

[5] = tested on: patients with treatment-resistant epilepsy (TRE); assay: Multivariable model of CBD response in treatment-resistant epilepsy
Protocol: Receiver operator curves (ROC) were generated and the area under the curve (AUC) was evaluated to compare clinical, genetic, and combined clinical+genetic models. Epistasis was evaluated in PLINK to identify potential interactions among variants included in the final response model.

Structure (SMILES): C=C(C)[C@@H]1CCC(C)=C[C@H]1c1c(O)cc(CCCCC)cc1O [CBD, cannabidiol]
- Therapeutic response (≥50% reduction), share of patients ([1]; 112 genotyped TRE patients): 56.3%
- Maintenance seizure frequency, Median ([1]; Non-Responders (N = 49)): 14.73
- Percent change seizure frequency, Median ([1]; Non-Responders (N = 49)): −14.3%
- Maintenance seizure frequency, Mean ± SD ([1]; Non-Responders (N = 49)): 108.52 ± 327.05
- Percent change seizure frequency, Mean ± SD ([1]; Non-Responders (N = 49)): 5.65 ± 59.13%
- Maintenance seizure frequency, Median ([1]; Overall (N = 112)): 7.76
- Percent change seizure frequency, Median ([1]; Overall (N = 112)): −53.9%
- Maintenance seizure frequency, Mean ± SD ([1]; Overall (N = 112)): 58.54 ± 222.27
- Percent change seizure frequency, Mean ± SD ([1]; Overall (N = 112)): −42.08 ± 58.76%
- Maintenance seizure frequency, Median ([1]; Responders (N = 63)): 4.50
- Percent change seizure frequency, Median ([1]; Responders (N = 63)): −82%
- Maintenance seizure frequency, Mean ± SD ([1]; Responders (N = 63)): 19.65 ± 46.09
- Percent change seizure frequency, Mean ± SD ([1]; Responders (N = 63)): −79.20 ± 16.58%
- Therapeutic response (≥50% reduction), number of patients ([1]; of 112 patients): 63
- Adverse event Abnormal liver function tests, % ([2]; Non-Responders (N = 49)): (4.1%)
- Adverse event Decreased appetite, % ([2]; Non-Responders (N = 49)): (6.1%)
- Adverse event Depressed mood, % ([2]; Non-Responders (N = 49)): (14.3%)
- Adverse event Diarrhoea, % ([2]; Non-Responders (N = 49)): (44.9%)
- Adverse event Nausea/vomiting, % ([2]; Non-Responders (N = 49)): (10.2%)
- Adverse event Sedation, % ([2]; Non-Responders (N = 49)): (44.9%)
- Weight Change: 10-20% Weight loss, % ([2]; Non-Responders (N = 49)): (24.5%)
- Weight Change: <10% Weight loss, % ([2]; Non-Responders (N = 49)): (53.1%)
- Weight Change: >20% Weight loss, % ([2]; Non-Responders (N = 49)): (6.1%)
- Weight Change: No Change or increase, % ([2]; Non-Responders (N = 49)): (16.3%)
- Adverse event Abnormal liver function tests, % ([2]; Overall (N = 112)): (10.7%)
- Adverse event Decreased appetite, % ([2]; Overall (N = 112)): (10.7%)
- Adverse event Depressed mood, % ([2]; Overall (N = 112)): (10.7%)
- Adverse event Diarrhoea, % ([2]; Overall (N = 112)): (58.9%)
- Adverse event Nausea/vomiting, % ([2]; Overall (N = 112)): (12.5%)
- Adverse event Sedation, % ([2]; Overall (N = 112)): (34.8%)
- Weight Change: 10-20% Weight loss, % ([2]; Overall (N = 112)): (20.5%)
- Weight Change: <10% Weight loss, % ([2]; Overall (N = 112)): (51.8%)
- Weight Change: >20% Weight loss, % ([2]; Overall (N = 112)): (8.0%)
- Weight Change: No Change or increase, % ([2]; Overall (N = 112)): (19.6%)
- Adverse event Abnormal liver function tests, % ([2]; Responders (N = 63)): (15.9%)
- Adverse event Decreased appetite, % ([2]; Responders (N = 63)): (14.3%)
- Adverse event Depressed mood, % ([2]; Responders (N = 63)): (7.9%)
- Adverse event Diarrhoea, % ([2]; Responders (N = 63)): (69.8%)
- Adverse event Nausea/vomiting, % ([2]; Responders (N = 63)): (14.3%)
- Adverse event Sedation, % ([2]; Responders (N = 63)): (27.0%)
- Weight Change: 10-20% Weight loss, % ([2]; Responders (N = 63)): (17.5%)
- Weight Change: <10% Weight loss, % ([2]; Responders (N = 63)): (50.8%)
- Weight Change: >20% Weight loss, % ([2]; Responders (N = 63)): (9.5%)
- Weight Change: No Change or increase, % ([2]; Responders (N = 63)): (22.2%)
- increased likelihood of response ([3]; AOX1 rs6729738, recessive): 6 fold
- increased odds of response ([3]; CHST11 rs903247): 4 fold
- decreased likelihood of response ([3]; GSTM5 rs2479390): 72%
- decreased likelihood of response ([3]; GSTP1 rs1695 (recessive)): 87%
- increased likelihood of response ([3]; SULT1A2 rs1059491 (recessive)): 17 fold
- increased odds of response ([3]; UGT2B4 rs1966151): 4 fold
- association of variant with CBD-associated sedation ([4]; ABCB1 rs1045642): decreased sedation
- increased likelihood of abnormal LFTs ([4]; APOA2 rs5085, recessive): 6 fold
- association of variant with CBD-associated sedation ([4]; COMT rs4680 recessive wild-type G alleles): decreased sedation
- increased likelihood of diarrhoea ([4]; CYP2A6 rs28399433): 10 fold
- association of variant with CBD-associated sedation ([4]; CYP2C19 rs3758581): decreased sedation
- increased likelihood of diarrhoea ([4]; CYP39A1 rs7761731): ~9 fold
- increased likelihood of diarrhoea ([4]; FMO6 rs2272797): ~5 fold
- increased odds of abnormal LFTs ([4]; SLC22A2 rs316003, recessive): ~11 fold
- increased odds of abnormal LFTs ([4]; SLC22A5 rs274548, recessive): ~15 fold
- increased odds of abnormal LFTs ([4]; SLC22A11 rs1783811, recessive): ~6 fold
- association of variant with CBD-associated sedation ([4]; TPMT rs2842934): decreased sedation
- association of variant with CBD-associated sedation ([4]; UGT2A1 rs4148304 missense variant): decreased odds of sedation
- association of variant with CBD-associated diarrhoea ([4]; UGT2A1 rs11249454 intron variant): decreased odds of diarrhoea
- OR of CBD response, multivariable model ([5]; ABP1 (AOC1) rs12539): 5.67
- OR of CBD response, multivariable model ([5]; CHST11 rs903247): 5.03
- OR of CBD response, multivariable model ([5]; DPYD rs1801265): 4.50
- OR of CBD response, multivariable model ([5]; FMO2 rs7515157 (recessive)): 0.06
- OR of CBD response, multivariable model ([5]; GSTM5 rs2479390): 0.15
- OR of CBD response, multivariable model ([5]; GSTP1 rs1695 (recessive)): 0.03
- OR of CBD response, multivariable model ([5]; SLC7A7 rs1061040): 5.04
- OR of CBD response, multivariable model ([5]; UGT2B4 rs1966151): 5.02
- OR of CBD response, multivariable model ([5]; predictor: CBD dose (mg/kg/day)): 1.07
